Measurements: the OligoGym collection
These antisense oligonucleotides have a phosphorothioate backbone; sugars and methylation of C are not fully specified.

How the values were obtained:
Settings in all cases: ASO
TNFRSF1A = target: TNFRSF1A
TFRC = target: TFRC
CD44 = target: CD44
Note: test concentration or dose not given here.

Row | Sequence | remaining target (mRNA or protein) (fraction of control) (TFRC) | further results
1 | AGCTGGAGGTGAAGGTGG | – | remaining target (mRNA or protein) (fraction of control) (TNFRSF1A): ≥ 1
2 | CTACCCCTTTACAATAGC | 0.96 | –
3 | ACGGTGTTCTGTTTCTCC | – | remaining target (mRNA or protein) (fraction of control) (TNFRSF1A): 0.93
4 | TGAAGGTGGAACTGGGCA | – | remaining target (mRNA or protein) (fraction of control) (TNFRSF1A): 0.73
5 | ATCTGAGAAGACTGGGCG | – | remaining target (mRNA or protein) (fraction of control) (TNFRSF1A): ≥ 1
6 | TTGGCTTCTGGTCCCCTC | 0.38 | –
7 | ATTCTTGCTTTCTGAGGT | ≥ 1 | –
8 | TCCTCCAGGCAGCCCAGC | – | remaining target (mRNA or protein) (fraction of control) (TNFRSF1A): 0.59
9 | TTCTCTGGACTGAGGCTC | – | remaining target (mRNA or protein) (fraction of control) (TNFRSF1A): 0.81
10 | TCCGTGCTCGCCCCTGCC | – | remaining target (mRNA or protein) (fraction of control) (TNFRSF1A): 0.81
11 | TTTTCACTCCAATAATGC | – | remaining target (mRNA or protein) (fraction of control) (TNFRSF1A): ≥ 1
12 | GTCTGTTTTCTCAGCATT | ≥ 1 | –
13 | TCTTCTCCCTGTCCCCTA | – | remaining target (mRNA or protein) (fraction of control) (TNFRSF1A): 0.87
14 | AGACCAGCCCTTAGGATT | 0.56 | –
15 | CTCAGGGCAGTGTGGCAG | – | remaining target (mRNA or protein) (fraction of control) (TNFRSF1A): 0.39
16 | TCTGAAGCGGTGAAGGAG | – | remaining target (mRNA or protein) (fraction of control) (TNFRSF1A): ≥ 1
17 | TCATTTTATCCAGCAGAA | 0.79 | –
18 | TCAACATACAACGCAAGA | 0.65 | –
19 | CATTTCCTTTCGGCATTT | – | remaining target (mRNA or protein) (fraction of control) (TNFRSF1A): 0.87
20 | ACTGTGGTGCCTGAGTCC | – | remaining target (mRNA or protein) (fraction of control) (TNFRSF1A): 0.69
21 | ATAGCAGATACTTCCACT | 0.96 | –
22 | GGTTTCTGAACAGCGTTT | ≥ 1 | –
23 | AGAGGCAGTTCCCATTAC | 0.46 | –
24 | CACCCGAACCAGGAATCT | ≥ 1 | –

Row | Sequence | remaining target (mRNA or protein) (fraction of control) (TFRC) | further results
25 | TACACCTTGGATAAACTG | 0.93 | –
26 | GGACTGAAGCCCAGGGTG | – | remaining target (mRNA or protein) (fraction of control) (TNFRSF1A): 0.88
27 | CCCTGCTCTGACAATCAC | 0.9 | –
28 | CCGCCACAGCCCCTTCCC | 0.95 | –
29 | TTGGGCTCAGGGCAGTGT | – | remaining target (mRNA or protein) (fraction of control) (TNFRSF1A): ≥ 1
30 | AGGAGGGATAAAAGGCAA | – | remaining target (mRNA or protein) (fraction of control) (TNFRSF1A): 0.78
31 | GCCTGGACAGTCATTGTA | – | remaining target (mRNA or protein) (fraction of control) (TNFRSF1A): ≥ 1
32 | TATTGTCAGCATTTTCTT | ≥ 1 | –
33 | GAAGCCCGCACTCACACT | 0.8 | –
34 | AAGCTGCTGCCTAAAGAC | ≥ 1 | –
35 | AATTATGGGAAACACTGT | ≥ 1 | –
36 | CATGTCCAAAGAATGAAA | 0.95 | –
37 | CTCCGACAACTTTCTCTT | ≥ 1 | –
38 | ACTGACCAGCGACCTCTG | 0.58 | –
39 | AACTGGTTCTCTTTCAAT | 0.95 | –
40 | ACACTGCTCCCGATAATG | ≥ 1 | –
41 | GAACTAAATGGAGGCTTA | ≥ 1 | –
42 | TTTAGCATCAAATGAAGT | ≥ 1 | –
43 | CACGAGGGTCGGTGTAGT | ≥ 1 | –
44 | TCAAGTTCTCCAGTAAAG | ≥ 1 | –
45 | TCAACCTGGTATCTCCTA | 0.65 | –
46 | CCTCCGTCCCGAGCCGCC | 0.43 | –
47 | TTAACAACAACAGGAAAG | ≥ 1 | –
48 | TTTAACATCAGGTTTTGT | ≥ 1 | –

Row | Sequence | remaining target (mRNA or protein) (fraction of control) (TFRC) | further results
49 | CTGAAGAGACCCTATGAA | 0.97 | –
50 | CCACGAGCAGAATACAGC | ≥ 1 | –
51 | TATCTGAGAACATCTGGG | ≥ 1 | –
52 | CAGCCCCGCAGGATGAAG | ≥ 1 | –
53 | GCGGCTCCCTATGGCTGC | ≥ 1 | –
54 | ATCTCAGTGCCAAAAGGA | ≥ 1 | –
55 | GGGTTTTATTAGCAGATG | ≥ 1 | –
56 | AGGACTGATCCAGGGTTT | – | remaining target (mRNA or protein) (fraction of control) (CD44): 0.83
57 | CGGAGCGAACGGAGGGCG | – | remaining target (mRNA or protein) (fraction of control) (CD44): ≥ 1
58 | AAACAAGTCTACCGTTCT | ≥ 1 | –
59 | GACGACTCCTTGTTCACC | – | remaining target (mRNA or protein) (fraction of control) (CD44): ≥ 1
60 | TACCCAAATAAGGATAAT | ≥ 1 | –
61 | CTGGCTCCTCCCTCACTG | 0.75 | –
62 | CGGTTCCTGCCAGTCTCT | 0.54 | –
63 | GGCTTTCTGTCCTCCACA | – | remaining target (mRNA or protein) (fraction of control) (CD44): ≥ 1
64 | TTTGCTGCACAGATGGAG | – | remaining target (mRNA or protein) (fraction of control) (CD44): ≥ 1
65 | CTGGACATAGCGGGTGCC | – | remaining target (mRNA or protein) (fraction of control) (CD44): ≥ 1
66 | TAAGTGTCCCAGCTCCCT | – | remaining target (mRNA or protein) (fraction of control) (CD44): 0.98
67 | TCTTGGTCTCTGGTAGCA | – | remaining target (mRNA or protein) (fraction of control) (CD44): ≥ 1
68 | CCAATCATAAATCCAATC | ≥ 1 | –
69 | CCAACCTCAGTGGAAAGC | – | remaining target (mRNA or protein) (fraction of control) (CD44): ≥ 1
70 | TTGACTCCCATGTGAGTG | – | remaining target (mRNA or protein) (fraction of control) (CD44): ≥ 1
71 | GGAAAGGGAAAGCAGCAT | 0.95 | –
72 | GCCATTCTGGAATTTGGG | – | remaining target (mRNA or protein) (fraction of control) (CD44): ≥ 1

Row | Sequence | remaining target (mRNA or protein) (fraction of control) (TFRC) | further results
73 | TGCAGAGGTCAGCGGCCT | – | remaining target (mRNA or protein) (fraction of control) (CD44): ≥ 1
74 | TTAATAACTCCAAAGATG | ≥ 1 | –
75 | ACGCCAGACTTTGCTGAG | 0.38 | –
76 | GTGACACATTCAAGTGAG | ≥ 1 | –
77 | CTCTGGAGATTGTCTGGA | 0.76 | –
78 | CGCTTTCCCGCTCCCCGT | ≥ 1 | –
79 | GGCCTCTCCGTTGAGTCC | – | remaining target (mRNA or protein) (fraction of control) (CD44): ≥ 1
80 | GACTGTTGACTGCAATGC | – | remaining target (mRNA or protein) (fraction of control) (CD44): ≥ 1
81 | CGGATGCTTCACATTTTG | ≥ 1 | –
82 | CACAGCAATAGTCCCATA | 0.67 | –
83 | ATAGCACACCCGAGGATG | – | remaining target (mRNA or protein) (fraction of control) (CD44): ≥ 1
84 | GTTGTTAGTCTGGAAGTA | 0.9 | –
85 | CACTTTGTTCAACTCAGG | ≥ 1 | –
86 | ATTCTTATCTGGTCAGTG | ≥ 1 | –
87 | TCCAGGTGTGTAAGGGTC | ≥ 1 | –
88 | CAAAGTAAGCGAACCACT | ≥ 1 | –
89 | TTACAACCTTCAGCAGAG | ≥ 1 | –
90 | AGCTATGGGTATCACATT | ≥ 1 | –
91 | AGAGCTTTCTCCATCTGG | – | remaining target (mRNA or protein) (fraction of control) (CD44): ≥ 1
92 | GTGGGCAAGGTGCTATTG | – | remaining target (mRNA or protein) (fraction of control) (CD44): ≥ 1
93 | ATTAAGTAGAGGACCTGG | 0.66 | –
94 | AACCCTGGGAAATGTCCT | – | remaining target (mRNA or protein) (fraction of control) (CD44): ≥ 1
95 | TCCATCAAAGGCATTGGG | – | remaining target (mRNA or protein) (fraction of control) (CD44): ≥ 1
96 | AGGAAACCTGCTACATTC | ≥ 1 | –

Row | Sequence | remaining target (mRNA or protein) (fraction of control) (TFRC) | further results
97 | AAGCCAAGGCCAAGAGGG | – | remaining target (mRNA or protein) (fraction of control) (CD44): ≥ 1
98 | TGACTGCAATGCAAACTG | – | remaining target (mRNA or protein) (fraction of control) (CD44): ≥ 1
99 | GATTAGGCTATGGAAGGG | – | remaining target (mRNA or protein) (fraction of control) (CD44): ≥ 1
100 | TTTGGCTGACGGCTGTTT | 0.39 | –
101 | ATCCATAGCACACCCGAG | – | remaining target (mRNA or protein) (fraction of control) (CD44): ≥ 1
102 | TAGAGTCTGTTTTCCAGT | ≥ 1 | –
103 | GGAAACTGAGTGTGATTG | ≥ 1 | –
104 | CGATCTGCGCCAGGCTCA | – | remaining target (mRNA or protein) (fraction of control) (CD44): 0.72
105 | CAGCAAGTTTCATCTCCA | 0.83 | –
106 | TTCTTTCAGGAATGAGGA | 0.96 | –
107 | AGATTCGCAATGAAACAA | – | remaining target (mRNA or protein) (fraction of control) (CD44): ≥ 1
108 | CCACATGCCCTTCTATGA | – | remaining target (mRNA or protein) (fraction of control) (CD44): 0.9
109 | CTGTCTTCGTCTGGGATG | – | remaining target (mRNA or protein) (fraction of control) (CD44): ≥ 1
110 | CATTCTGAACTGCCACAC | 0.62 | –
111 | CCGAGATGGTGGAAACTG | ≥ 1 | –
112 | CTCATTGGCAAGAAAACA | 0.94 | –
113 | TGGTGCTGGTGAAGTCTG | ≥ 1 | –
114 | GTCTCCAGCACTCCAACT | ≥ 1 | –
115 | GCCTCCAAGTGGAACTGA | – | remaining target (mRNA or protein) (fraction of control) (CD44): 0.99
116 | TCTCCATCTGGGCCATTG | – | remaining target (mRNA or protein) (fraction of control) (CD44): ≥ 1
117 | TTCTCCACCAAACAAGTT | ≥ 1 | –
118 | GGGCCCTAATTTACAAAG | – | remaining target (mRNA or protein) (fraction of control) (CD44): 0.88
119 | AGTCCAAGATAAAAGAGG | ≥ 1 | –
120 | GGCACGAGGCAGAGTCCC | – | remaining target (mRNA or protein) (fraction of control) (CD44): ≥ 1

Row | Sequence | remaining target (mRNA or protein) (fraction of control) (TFRC) | further results
121 | CTCAGCGGCACGAGGCAG | – | remaining target (mRNA or protein) (fraction of control) (CD44): 0.91
122 | TGGTAGCAGGGATTCTGT | – | remaining target (mRNA or protein) (fraction of control) (CD44): ≥ 1
123 | AAGGCATTGGGCAGGTCT | – | remaining target (mRNA or protein) (fraction of control) (CD44): 0.99
124 | ATATTGAGCCTGTTAGCA | 0.95 | –
125 | TTGGTTTTGTGACATTGG | 0.92 | –
126 | CTGTGCTGTCCAGTTTCT | 0.9 | –
127 | AAACCTTGAAGTTGCTGG | 0.93 | –
128 | AGCCATCCATAGCACACC | – | remaining target (mRNA or protein) (fraction of control) (CD44): 0.97
129 | GTTATCGCCATCTACTTG | ≥ 1 | –
130 | CGTTGAGTCCACTTGGCT | – | remaining target (mRNA or protein) (fraction of control) (CD44): ≥ 1
131 | TCTTCTGCCCACACCTTC | – | remaining target (mRNA or protein) (fraction of control) (CD44): ≥ 1
132 | GTGGAGCTGAAGCATTGA | – | remaining target (mRNA or protein) (fraction of control) (CD44): ≥ 1
133 | TATGATGGTTCACTCACG | ≥ 1 | –
134 | CAACCCTAACTGTAGAAA | ≥ 1 | –
135 | TTACCCACCCAATGCTTA | 0.89 | –
136 | AGATCCCTCACAAATGAA | ≥ 1 | –
137 | TTTAAGTCAAAAGGTCAA | ≥ 1 | –
138 | AGCAATGCCCAGGGATTA | – | remaining target (mRNA or protein) (fraction of control) (CD44): ≥ 1
139 | TGGGCAAGTTTCAATAGG | ≥ 1 | –
140 | TATACCTTTACCTCCAAA | 0.99 | –
141 | GGTTGGCGATCAGGAATA | – | remaining target (mRNA or protein) (fraction of control) (CD44): ≥ 1
